Here are results for 27 compounds from patent US7696218B2, “Substituted 1,3-dialkyl-2,4-dioxo-6-(arylamino)-1,2,3,4-tetrahydropyrimidine-5-hydroxamic acid inhibitors of MAPK/ERK kinase” (Takeda San Diego, Inc., priority 2006, dated 2010).

Some results are limits rather than exact numbers.

The target of this assay is T1, MEK2 (Homo sapiens, UniProt P36507, S222E/S226D).
T1 construct: 6-histidine tag (N); made in house; host or cells: Spodoptera frugiperda Sf9 (baculovirus) for MEK2; E. coli for ERK1
T1 sequence (P36507 with tags, fused parts or gaps S222E/S226D): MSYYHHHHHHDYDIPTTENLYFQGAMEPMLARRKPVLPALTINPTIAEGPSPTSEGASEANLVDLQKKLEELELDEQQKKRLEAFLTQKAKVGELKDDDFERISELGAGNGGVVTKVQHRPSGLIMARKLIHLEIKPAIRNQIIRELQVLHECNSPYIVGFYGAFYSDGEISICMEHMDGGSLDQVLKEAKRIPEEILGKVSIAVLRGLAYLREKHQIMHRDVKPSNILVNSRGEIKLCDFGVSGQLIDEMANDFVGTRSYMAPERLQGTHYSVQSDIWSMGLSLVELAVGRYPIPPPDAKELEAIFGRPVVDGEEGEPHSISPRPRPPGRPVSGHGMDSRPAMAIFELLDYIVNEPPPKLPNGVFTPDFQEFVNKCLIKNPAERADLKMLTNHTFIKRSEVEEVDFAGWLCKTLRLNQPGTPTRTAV
Kind of assay: MEK2 inhibition assay, fluorescence polarization with IMAP beads (ERK1 / FI-Erktide substrate). It counts as biochemical. Particulars: 4 nM MEK2, 25 nM ERK1, 400 μM ATP, 500 nM FI-Erktide, 1% DMSO, 22 min at room temperature; values given as ranges; read-out: IC50 of Exemplified Compounds Against MEK2. From the text: For MEK2, DNA encoding residues 1-400 (S222E/S226D) of the full-length sequence of the human enzyme may be amplified by PCR and cloned into pFastbac (Invitrogen), which incorporates a 6-histidine tag at the N-terminus. The two mutations, S222E and S226D, may be obtained by quick change PCR. SEQ ID NO: 3 corresponds to residues 1-400 with mutations S222E/S226D, and with the N-terminal 6-histidine tag and SEQ ID NO: 4 is the DNA sequence that was used to encode SEQ ID NO: 3.
Recombinant baculovirus incorporating the MEK1 and MEK2 constructs may be generated by transposition using the Bac-to-Bac system (Invitrogen). High-titer viral stocks may be generated by infection of Spodoptera frugiperda Sf9 cells; the expression of recombinant protein may be carried out by infection of Spodoptera frugiperda Sf9 (Invitrogen) in 5L Wave Bioreactors (Wave Biotech).
Recombinant protein may be isolated from cellular extracts by passage over ProBond resin (Invitrogen). Partially purified extracts of all MEK1 may then be further purified by high pressure liquid chromatography over a SEC2000 gel filtration resin. The purity of MEK1 and MEK2 proteins may be determined on denaturing SDS-PAGE gel. Purified MEK1 and MEK2 may then be concentrated to a final concentration of 3.4 mg/ml and 5.4 mg/ml, respectively. The proteins may be either stored at −78° C. in a buffer containing 50 mM TRIS-HCl pH 7.6, 250 mM NaCl, 0.1 mM EDTA and 0.125 mM TCEP or at −20° C. in the presence of glycerol (final concentration of glycerol at 50%).
The inhibitory properties of compounds relative to MEK1 or MEK2 may be determined using a black 384-well-plate format under the following reaction conditions: 50 mM HEPES pH 7.3, 10 mM NaCl, 10 mM MgCl2, 0.01% Brij35, 1 nM MEK1 or 4 nM MEK2, 25 nM ERK1, 400 μM ATP, 500 nM IPTTPITTYFFFK-5FAM-COOH (FI-Erktide), and 1% DMSO. Reaction product is determined quantitatively by fluorescent polarization using progressive IMAP beads from Molecular Devices.
The assay reaction may be initiated as follows: 2 μl of the mixture of 1.5 μM FI-Erktide and 75 nM ERK with 2 μl of inhibitor (2 fold serial dilutions for 11 data points for each inhibitor) containing 3% DMSO were added to each well of the plate, followed by the addition of 2 μl of the mixture of 3 nM MEK1 or 12 nM MEK2 and 1200 μM ATP to initiate the reaction (final enzyme concentration was 1 nM for MEK1 or 4 nM for MEK2). The reaction mixture may then be incubated at room temperature for 22 min, and quenched and developed by addition of 20 μl of 1:200 dilution of progressive IMAP beads (Molecular Devices) in 80% buffer A, 20% bufferB and 0.003% Tween 20. Fluorescence polarization of the resulting reaction mixtures may be measured after a 1 hour incubation at room temperature.
IC50 values may be calculated by non-linear curve fitting of the compound concentrations and fluorescence polarization signal to the standard IC50 equation.
In general terms: In fluorescence polarisation assays a small probe gives low polarisation when free and higher when bound to something large.
What is called IC50 is the concentration needed to halve the response being measured. For `Cn1c(Nc2ccc(I)cc2F)c(C(=O)NOC[C@H](O)CO)c(=O)n(C)c1=O` [Example 2, (R)-N-(2,3-dihydroxypropoxy)-6-(2-fluoro-4-iodophenylamino)-1,3-dimethyl-2,4-dioxo-1,2,3,4-tetrahydropyrimidine-5-carboxamide], the IC50 is not above 500 nM.
Next, `Cn1c(Nc2ccc(I)cc2F)c(C(=O)NOCCO)c(=O)n(C)c1=O` [Example 3, 6-(2-fluoro-4-iodophenylamino)-N-(2-hydroxyethoxy)-1,3-dimethyl-2,4-dioxo-1,2,3,4-tetrahydropyrimidine-5-carboxamide]: not above 500 nM.
Next, `Cn1c(Nc2ccc(I)cc2F)c(C(=O)NOCC2CC2)c(=O)n(C)c1=O` [Example 4, N-(cyclopropylmethoxy)-6-(2-fluoro-4-iodophenylamino)-1,3-dimethyl-2,4-dioxo-1,2,3,4-tetrahydropyrimidine-5-carboxamide]: 501 to 2500 nM; `CONC(=O)c1c(Nc2ccc(I)cc2F)n(C)c(=O)n(C)c1=O` [Example 5, 6-(2-Fluoro-4-iodophenylamino)-N-methoxy-1,3-dimethyl-2,4-dioxo-1,2,3,4-tetrahydropyrimidine-5-carboxamide]: 501 to 2500 nM.
As for `Cn1c(Nc2ccc(I)cc2F)c(C(=O)NO)c(=O)n(C)c1=O` [Example 6, 6-(2-Fluoro-4-iodophenylamino)-N-hydroxy-1,3-dimethyl-2,4-dioxo-1,2,3,4-tetrahydropyrimidine-5-carboxamide], the IC50 is not above 500 nM.
On to `Cn1c(Nc2ccc(I)cc2F)c(C(=O)NN)c(=O)n(C)c1=O` [Example 9, 6-(2-Fluoro-4-iodophenylamino)-1,3-dimethyl-2,4-dioxo-1,2,3,4-tetrahydropyrimidine-5-carbohydrazide], for which the IC50 is not above 500 nM.
Next, `CC(=O)c1c(Nc2ccc(I)cc2F)n(C)c(=O)n(C)c1=O` [Example 10, 5-Acetyl-6-(2-fluoro-4-iodophenylamino)-1,3-dimethylpyrimidine-2,4(1H,3H)-dione]: 501 to 2500 nM; `Cn1c(Nc2ccc(I)cc2F)c(C(=O)c2ccco2)c(=O)n(C)c1=O` [Example 11, 6-(2-Fluoro-4-iodophenylamino)-5-(furan-2-carbonyl)-1,3-dimethylpyrimidine-2,4(1H,3H)-dione]: 2500 to 25000 nM; `COCC(=O)c1c(Nc2ccc(I)cc2F)n(C)c(=O)n(C)c1=O` [Example 12, 6-(2-Fluoro-4-iodophenylamino)-5-(2-methoxyacetyl)-1,3-dimethylpyrimidine-2,4(1H,3H)-dione]: 2500 to 25000 nM.
For `COCCOCC(=O)c1c(Nc2ccc(I)cc2F)n(C)c(=O)n(C)c1=O` [Example 13, 6-(2-Fluoro-4-iodophenylamino)-5-(2-(2-methoxyethoxy)acetyl)-1,3-dimethylpyrimidine-2,4(1H,3H)-dione] the value was 2500 to 25000 nM.
For `CC(=O)OCC(=O)c1c(Nc2ccc(I)cc2F)n(C)c(=O)n(C)c1=O` [Example 14, 2-(6-(2-Fluoro-4-iodophenylamino)-1,3-dimethyl-2,4-dioxo-1,2,3,4-tetrahydropyrimidin-5-yl)-2-oxoethyl acetate] the value was more than 25000 nM.
Turning to `Cn1c(Nc2ccc(I)cc2F)c(C(=O)CO)c(=O)n(C)c1=O` [Example 15, 6-(2-Fluoro-4-iodophenylamino)-5-(2-hydroxyacetyl)-1,3-dimethylpyrimidine-2,4(1H,3H)-dione], the IC50 lay within 501 to 2500 nM.
For `Cn1c(Nc2ccc(I)cc2F)c(C(N)=O)c(=O)n(C)c1=O` [Example 16, 6-(2-Fluoro-4-iodophenylamino)-1,3-dimethyl-2,4-dioxo-1,2,3,4-tetrahydropyrimidine-5-carboxamide] the value was not above 500 nM; for `Cc1cc(I)ccc1Nc1c(C(N)=O)c(=O)n(C)c(=O)n1C` [Example 17, 6-(4-Iodo-2-methylphenylamino)-1,3-dimethyl-2,4-dioxo-1,2,3,4-tetrahydropyrimidine-5-carboxamide], 501 to 2500 nM.
In the case of `Cn1c(Nc2ccc(Br)cc2Cl)c(C(N)=O)c(=O)n(C)c1=O` [Example 18, 6-(4-Bromo-2-chlorophenylamino)-1,3-dimethyl-2,4-dioxo-1,2,3,4-tetrahydropyrimidine-5-carboxamide], the IC50 was in the range of 2500 to 25000 nM.
Next, `Cn1c(Nc2ccc(Br)cc2F)c(C(N)=O)c(=O)n(C)c1=O` [Example 19, 6-(4-Bromo-2-fluorophenylamino)-1,3-dimethyl-2,4-dioxo-1,2,3,4-tetrahydropyrimidine-5-carboxamide]: 2500 to 25000 nM; `CCOC(=O)c1c(Nc2ccc(I)cc2F)n(C)c(=O)n(C)c1=O` [Example 20, Ethyl 6-(2-fluoro-4-iodophenylamino)-1,3-dimethyl-2,4-dioxo-1,2,3,4-tetrahydropyrimidine-5-carboxylate]: more than 25000 nM.
As for `CCOC(=O)c1c(Nc2ccccc2F)n(C)c(=O)n(C)c1=O` [Example 21, Ethyl 6-(2-fluorophenylamino)-1,3-dimethyl-2,4-dioxo-1,2,3,4-tetrahydropyrimidine-5-carboxylate], the IC50 was more than 25000 nM.
Next, `CCOC(=O)c1c(Nc2ccc(Br)cc2Cl)n(C)c(=O)n(C)c1=O` [Example 22, Ethyl 6-(4-bromo-2-chlorophenylamino)-1,3-dimethyl-2,4-dioxo-1,2,3,4-tetrahydropyrimidine-5-carboxylate]: more than 25000 nM.
With `Cn1c(Nc2ccc(I)cc2Cl)c(C(=O)NOCCO)c(=O)n(C)c1=O` [Example 25, 6-(2-chloro-4-iodophenylamino)-N-(2-hydroxyethoxy)-1,3-dimethyl-2,4-dioxo-1,2,3,4-tetrahydropyrimidine-5-carboxamide], the IC50 was not above 500 nM.
For `Cn1c(Nc2ccc(I)cc2Cl)c(C(=O)NOC[C@H](O)CO)c(=O)n(C)c1=O` [Example 27, (R)-6-(2-chloro-4-iodophenylamino)-N-(2,3-dihydroxypropoxy)-1,3-dimethyl-2,4-dioxo-1,2,3,4-tetrahydropyrimidine-5-carboxamide] the value was not above 500 nM; for `Cn1c(Nc2ccc(I)cc2F)c(C(=O)NOC(CO)CO)c(=O)n(C)c1=O` [Example 28, N-(1,3-dihydroxypropan-2-yloxy)-6-(2-fluoro-4-iodophenylamino)-1,3-dimethyl-2,4-dioxo-1,2,3,4-tetrahydropyrimidine-5-carboxamide], not above 500 nM; for `Cn1c(Nc2ccc(I)cc2F)c(C(=O)NOCCCO)c(=O)n(C)c1=O` [Example 29, 6-(2-Fluoro-4-iodophenylamino)-N-(3-hydroxypropoxy)-1,3-dimethyl-2,4-dioxo-1,2,3,4-tetrahydropyrimidine-5-carboxamide], 501 to 2500 nM.
Turning to `Cc1cc(C(=O)c2c(Nc3ccc(I)cc3F)n(C)c(=O)n(C)c2=O)no1` [Example 30, 6-(2-Fluoro-4-iodophenylamino)-1,3-dimethyl-5-(5-methylisoxazole-3-carbonyl)pyrimidine-2,4(1H,3H)-dione], the IC50 is more than 25000 nM.
With `Cn1c(Nc2ccc(I)cc2F)c(C(=O)C(=O)O)c(=O)n(C)c1=O` [Example 31, 2-(6-(2-Fluoro-4-iodophenylamino)-1,3-dimethyl-2,4-dioxo-1,2,3,4-tetrahydropyrimidin-5-yl)-2-oxoacetic acid], the IC50 was more than 25000 nM.
For `Cn1c(Nc2ccc(I)cc2F)c(C(=O)N2CC(O)CO2)c(=O)n(C)c1=O` (stereo not drawn) [Example 32, 6-(2-Fluoro-4-iodophenylamino)-5-(4-hydroxyisoxazolidine-2-carbonyl)-1,3-dimethylpyrimidine-2,4(1H,3H)-dione] the value was 2500 to 25000 nM; for `Cn1c(Nc2ccc(I)cc2F)c(C(=O)NCCN2CCCC2)c(=O)n(C)c1=O` [Example 33, 6-(2-Fluoro-4-iodophenylamino)-1,3-dimethyl-2,4-dioxo-N-(2-(pyrrolidin-1-yl)ethyl)-1,2,3,4-tetrahydropyrimidine-5-carboxamide], 2500 to 25000 nM.
